{
  "source": "ChEMBL document CHEMBL1201862",
  "about": "“PubChem BioAssay data set” (2004)",
  "key": {"Coagulation factor XII": {"molecular_target": "T1, Coagulation factor XII (Homo sapiens, UniProt P00748)", "T1 sequence (P00748 whole entry)": "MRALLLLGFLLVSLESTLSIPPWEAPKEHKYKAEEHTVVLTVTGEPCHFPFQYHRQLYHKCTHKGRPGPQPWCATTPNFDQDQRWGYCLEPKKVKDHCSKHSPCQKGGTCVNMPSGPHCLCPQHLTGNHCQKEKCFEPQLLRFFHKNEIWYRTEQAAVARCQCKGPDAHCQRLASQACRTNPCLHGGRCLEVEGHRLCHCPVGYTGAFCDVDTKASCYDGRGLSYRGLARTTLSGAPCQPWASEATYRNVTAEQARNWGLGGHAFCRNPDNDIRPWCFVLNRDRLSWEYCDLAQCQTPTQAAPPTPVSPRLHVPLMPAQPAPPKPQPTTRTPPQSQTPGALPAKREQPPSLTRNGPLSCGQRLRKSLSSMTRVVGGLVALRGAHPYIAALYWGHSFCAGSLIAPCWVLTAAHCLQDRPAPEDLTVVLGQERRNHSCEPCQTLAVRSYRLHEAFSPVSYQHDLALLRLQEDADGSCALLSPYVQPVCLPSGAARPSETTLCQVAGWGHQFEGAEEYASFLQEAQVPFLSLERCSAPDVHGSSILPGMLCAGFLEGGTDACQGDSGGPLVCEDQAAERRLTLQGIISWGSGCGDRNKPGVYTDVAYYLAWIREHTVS", "type": "functional"}, "[1]": {"test": "DRD fibroblast viability loss – cell-based, non-viral oncogenic, luminescence, dose response (AID 1934)", "type": "functional", "details": "Homo sapiens"}, "BJ [2]": {"system": "BJ", "test": "cells", "type": "functional, cell-based", "details": "Homo sapiens"}, "BJ [3]": {"system": "BJ", "test": "BJ-TERT-LT-ST fibroblast viability loss – cell-based, RAS-independent, luminescence, dose response (AID 1935);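 further: BJ fibroblasts immortalized with TERT plus LT and ST oncogenes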", "type": "functional", "details": "Homo sapiens"}, "BJ [4]": {"system": "BJ", "test": "BJ-TERT fibroblast viability loss – cell-based, RAS-independent, luminescence, dose response (AID 1933)", "type": "functional", "details": "Homo sapiens"}, "[5]": {"molecular_target": "T2, Heat shock factor protein 1 (Mus musculus, UniProt P38532)", "T2 sequence (P38532 whole entry)": "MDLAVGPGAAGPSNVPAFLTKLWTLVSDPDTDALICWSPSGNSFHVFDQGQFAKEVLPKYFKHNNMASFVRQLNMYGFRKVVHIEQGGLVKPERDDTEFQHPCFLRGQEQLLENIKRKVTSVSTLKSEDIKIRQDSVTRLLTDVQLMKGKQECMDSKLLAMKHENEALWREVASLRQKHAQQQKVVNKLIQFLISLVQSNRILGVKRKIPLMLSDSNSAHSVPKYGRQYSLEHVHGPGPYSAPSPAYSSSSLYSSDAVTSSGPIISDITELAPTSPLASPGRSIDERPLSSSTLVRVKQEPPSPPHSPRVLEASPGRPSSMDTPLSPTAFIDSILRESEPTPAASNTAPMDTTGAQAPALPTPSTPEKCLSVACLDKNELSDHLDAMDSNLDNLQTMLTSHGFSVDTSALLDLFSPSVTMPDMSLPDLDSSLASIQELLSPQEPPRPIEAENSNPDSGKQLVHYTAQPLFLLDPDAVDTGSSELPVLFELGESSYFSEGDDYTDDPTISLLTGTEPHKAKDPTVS", "test": "decrease of HSF1-responsive luciferase luminescence – cell-based, NIH3T3, dose retest, confirmation (AID 2382);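 further: NIH3T3 fibroblasts with HSF1-driven luciferase reporter stressed by proteasome inhibitor MG132; luminescence from HSF1-driven luciferase expression after 8 hours of MG132 stress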", "type": "functional"}, "Cytochrome P450 1A2": {"molecular_target": "T3, Cytochrome P450 1A2 (Homo sapiens, UniProt P05177)", "T3 sequence (P05177 whole entry)": "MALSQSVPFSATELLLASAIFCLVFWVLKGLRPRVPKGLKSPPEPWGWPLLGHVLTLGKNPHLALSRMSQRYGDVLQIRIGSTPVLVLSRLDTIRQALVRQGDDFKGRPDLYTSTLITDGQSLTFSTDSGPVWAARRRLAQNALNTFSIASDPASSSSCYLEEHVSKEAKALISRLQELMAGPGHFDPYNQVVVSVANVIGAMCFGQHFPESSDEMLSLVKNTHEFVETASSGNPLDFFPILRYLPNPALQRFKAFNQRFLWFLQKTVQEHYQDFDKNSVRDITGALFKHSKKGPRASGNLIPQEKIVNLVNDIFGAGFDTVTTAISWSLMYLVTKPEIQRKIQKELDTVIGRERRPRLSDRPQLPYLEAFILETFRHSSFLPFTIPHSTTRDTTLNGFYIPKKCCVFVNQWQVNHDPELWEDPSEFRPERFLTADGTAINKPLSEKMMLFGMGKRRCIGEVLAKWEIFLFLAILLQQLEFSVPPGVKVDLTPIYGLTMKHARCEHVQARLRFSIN"}, "[6]": {"molecular_target": "Luciferin 4-monooxygenase (Photinus pyralis, UniProt P08659)", "sequence (P08659 whole entry)": "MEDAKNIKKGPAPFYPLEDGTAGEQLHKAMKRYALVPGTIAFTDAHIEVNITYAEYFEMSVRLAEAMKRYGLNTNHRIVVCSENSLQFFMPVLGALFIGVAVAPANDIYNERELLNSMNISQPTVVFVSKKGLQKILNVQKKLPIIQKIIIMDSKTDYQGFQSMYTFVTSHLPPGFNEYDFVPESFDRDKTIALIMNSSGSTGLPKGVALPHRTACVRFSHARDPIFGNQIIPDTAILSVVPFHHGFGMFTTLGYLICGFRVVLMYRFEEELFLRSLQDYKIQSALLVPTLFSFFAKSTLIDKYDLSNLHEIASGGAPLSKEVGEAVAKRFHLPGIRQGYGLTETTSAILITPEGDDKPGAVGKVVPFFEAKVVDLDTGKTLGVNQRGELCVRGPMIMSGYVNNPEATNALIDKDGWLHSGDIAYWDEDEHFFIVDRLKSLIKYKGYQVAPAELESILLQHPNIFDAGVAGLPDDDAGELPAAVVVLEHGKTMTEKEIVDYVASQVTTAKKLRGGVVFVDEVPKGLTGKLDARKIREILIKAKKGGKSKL", "test": "inhibition of purified Photinus pyralis luciferase – biochemical, luminescence, dose response (AID 1891)"}, "Cytochrome P450 2C19": {"molecular_target": "Cytochrome P450 2C19 (Homo sapiens, UniProt P33261)", "sequence (P33261 whole entry)": "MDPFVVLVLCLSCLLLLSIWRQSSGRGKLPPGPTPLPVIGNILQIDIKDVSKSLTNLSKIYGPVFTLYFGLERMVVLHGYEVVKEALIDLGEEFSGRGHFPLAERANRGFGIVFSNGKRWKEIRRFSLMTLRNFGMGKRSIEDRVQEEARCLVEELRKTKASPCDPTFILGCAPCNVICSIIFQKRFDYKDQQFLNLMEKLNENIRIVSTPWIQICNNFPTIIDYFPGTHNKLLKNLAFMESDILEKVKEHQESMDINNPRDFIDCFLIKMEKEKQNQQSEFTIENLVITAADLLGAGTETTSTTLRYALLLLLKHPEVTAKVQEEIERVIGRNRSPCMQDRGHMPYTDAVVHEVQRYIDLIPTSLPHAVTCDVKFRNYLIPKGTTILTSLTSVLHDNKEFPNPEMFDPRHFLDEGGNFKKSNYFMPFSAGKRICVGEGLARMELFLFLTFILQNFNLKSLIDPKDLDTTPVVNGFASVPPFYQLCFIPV", "test": "Cytochrome panel assay with activity outcomes. Panel member name: p450-cyp2c19 Compounds with AC50 equal or less than 10 uM are considered active", "type": "functional", "details": "read-out: AC50"}, "[7]": {"test": "Luminescence Cell-Based Dose Confirmation HTS to Identify Inhibitors of Platelet Dense Granule Release. [Related pubchem assays: 1663 (Primary HTS), 1678 (Summary of Project)]", "type": "functional"}, "Cytochrome P450 2C9": {"molecular_target": "Cytochrome P450 2C9 (Homo sapiens, UniProt P11712)", "sequence (P11712 whole entry)": "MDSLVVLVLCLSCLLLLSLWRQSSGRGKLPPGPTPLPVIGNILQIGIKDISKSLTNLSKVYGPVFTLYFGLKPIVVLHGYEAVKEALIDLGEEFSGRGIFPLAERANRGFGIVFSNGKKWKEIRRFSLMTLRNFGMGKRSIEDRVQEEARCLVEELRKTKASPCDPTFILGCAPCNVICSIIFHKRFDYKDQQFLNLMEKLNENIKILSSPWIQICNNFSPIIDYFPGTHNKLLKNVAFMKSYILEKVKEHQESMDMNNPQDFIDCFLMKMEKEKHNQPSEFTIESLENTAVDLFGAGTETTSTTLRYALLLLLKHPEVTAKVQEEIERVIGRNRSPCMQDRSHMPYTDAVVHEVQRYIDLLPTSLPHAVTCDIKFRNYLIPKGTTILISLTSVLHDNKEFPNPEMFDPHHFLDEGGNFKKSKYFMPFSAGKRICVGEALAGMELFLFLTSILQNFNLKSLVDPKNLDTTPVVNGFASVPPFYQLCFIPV"}, "[8]": {"test": "alpha-synuclein stem-loop luciferase translation blockers – H4 neuroglioma cells, luminescence, confirmation (AID 1988)", "type": "functional, cell-based"}, "[9]": {"system": "Streptococcus sp. 'group A'", "test": "Streptococcus pyogenes SK(-)GAS viability under kanamycin – luminescence, BacTiterGlo, confirmation, counter-screen for streptokinase expression inhibitor project, dose response (AID 1900)", "type": "functional, organism-based"}, "[10]": {"test": "viability of PTEN-deleted HCT116 cells – cell-based, HCT116 PTEN knockout, dose response (AID 1047);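 further: cells exposed to compound for 60 hours before readout; potency for loss of cell viability measured by luminescence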", "type": "functional"}, "[11]": {"test": "luciferase reporter signal suppression in cells – H4 neuroglioma cells, luminescence, dose response (AID 1990)", "type": "functional, cell-based"}, "[12]": {"test": "Luminescence Cell-Based Dose Response HTS to Identify Inhibitors of 5'UTR Stem-Loop Driven Prion Protein mRNA Translation in H4 Neuroglioblastoma Cells. [Related pubchem assays: 1827 (Project Summary), 1813 (Primary HTS)]", "type": "functional"}, "Streptococcus": {"system": "Streptococcus", "test": "GAS UMAA2166 growth inhibition – luminescence, BacTiterGlo, counter-screen for streptokinase expression inhibitor project, dose response (AID 1915);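 further: potency for reduction of bacterial viability or growth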", "type": "functional, organism-based"}, "[13]": {"test": "viability of HCT116 lacking mutant beta-catenin – cell-based, human colon tumor, dose response (AID 1045);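 further: cells exposed to compound for 60 hours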", "type": "functional"}, "Streptokinase A": {"molecular_target": "T4, Streptokinase A (Streptococcus pyogenes serotype M1, UniProt P10520)", "T4 sequence (P10520 whole entry)": "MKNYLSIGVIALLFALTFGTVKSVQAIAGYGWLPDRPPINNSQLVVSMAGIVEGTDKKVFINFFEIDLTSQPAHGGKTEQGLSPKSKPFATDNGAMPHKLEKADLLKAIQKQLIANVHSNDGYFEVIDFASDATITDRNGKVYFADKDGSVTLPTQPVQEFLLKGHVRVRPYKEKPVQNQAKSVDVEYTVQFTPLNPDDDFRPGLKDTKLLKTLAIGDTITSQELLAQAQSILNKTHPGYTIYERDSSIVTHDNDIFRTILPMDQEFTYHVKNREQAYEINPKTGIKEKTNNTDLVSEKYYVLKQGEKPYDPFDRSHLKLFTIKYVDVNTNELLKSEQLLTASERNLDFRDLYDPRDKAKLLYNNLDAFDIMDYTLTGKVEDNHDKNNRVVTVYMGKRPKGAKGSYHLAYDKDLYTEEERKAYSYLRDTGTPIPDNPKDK", "test": "viability-normalized secreted streptokinase activity reduction – plasminogen activation absorbance, OD405, dose response (AID 1914)", "type": "functional, Streptococcus pyogenes M1 GAS"}, "cells [14]": {"test": "cells", "type": "functional, cell-based"}, "cells [15]": {"test": "cells", "type": "functional, cell-based", "remark": "listed apart in the source"}},
  "note": "Active and inactive are the calls of the source.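 Wherever IC50 is given: activated factor XIIa alpha cleaving a fluorogenic AMC peptide substrate; inhibitor potency from loss of enzyme activity.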",
  "data": [
    {"smiles": "COc1cccc2sc(NC(=O)c3ccc(S(=O)(=O)N4CCOCC4)cc3)nc12", "values": [
      {"measurement": "IC50", "setting": "Coagulation factor XII", "result": "> 50 µM (inactive)"}
    ]},
    {"smiles": "O=C(C[n+]1cc(-c2ccccc2)n2c1CCC2)Nc1nc(-c2ccccc2)cs1", "values": [
      {"measurement": "IC50", "setting": "Coagulation factor XII", "result": "> 50 µM (inactive)"}
    ]},
    {"smiles": "Cc1nc(-c2ccc(C(=O)Nc3ccccc3F)cc2)cs1", "values": [
      {"measurement": "EC50", "setting": "[1]", "result": "11 µM (active)"},
      {"measurement": "EC50", "setting": "BJ [2]", "result": "10.8 µM (active)"},
      {"measurement": "EC50", "setting": "BJ [3]", "result": "19.9 µM (active)"},
      {"measurement": "EC50", "setting": "BJ [4]", "result": "13.7 µM (active)"}
    ]},
    {"smiles": "Nc1c(NC(=O)CC[n+]2ccccc2)cccc1[N+](=O)[O-]", "values": [
      {"measurement": "EC50", "setting": "[5]", "result": "7.93 µM (active)"}
    ]},
    {"smiles": "Cc1c(C(c2cccc([N+](=O)[O-])c2O)c2c(C)n(C)n(-c3ccccc3)c2=O)c(=O)n(-c2ccccc2)n1C", "values": [
      {"measurement": "AC50", "setting": "Cytochrome P450 1A2", "result": "15.8 µM (inconclusive)"},
      {"measurement": "EC50", "setting": "[6]", "result": "> 112 µM (not active)"},
      {"measurement": "AC50", "setting": "Cytochrome P450 2C19", "result": "35.5 µM (inconclusive)"},
      {"measurement": "EC50", "setting": "[7]", "result": "> 112 µM (not active)"},
      {"measurement": "AC50", "setting": "Cytochrome P450 2C9", "result": "0.00562 µM (inconclusive)"}
    ]},
    {"smiles": "CCCCCCCCCC(=O)Nn1cnc2ccccc2c1=O", "values": [
      {"measurement": "IC50", "setting": "Coagulation factor XII", "result": "> 50 µM (inactive)"}
    ]},
    {"smiles": "Cc1ccc(Cl)cc1N1CCN(C(=O)c2cn(C)c(=O)c3c2c2ccccc2n3C)CC1", "values": [
      {"measurement": "EC50", "setting": "[8]", "result": "11.4 µM (active)"},
      {"measurement": "EC50", "setting": "[9]", "result": "3.51 µM (active)"},
      {"measurement": "EC50", "setting": "[10]", "result": "3.36 µM (active)"},
      {"measurement": "EC50", "setting": "[11]", "result": "12.4 µM (active)"},
      {"measurement": "EC50", "setting": "[12]", "result": "20.5 µM (active)"},
      {"measurement": "EC50", "setting": "Streptococcus", "result": "22.8 µM (active)"},
      {"measurement": "EC50", "setting": "[13]", "result": "4.17 µM (active)"},
      {"measurement": "EC50", "setting": "Streptokinase A", "result": "9.73 µM (active)"}
    ]},
    {"smiles": "Cc1cc(=O)oc(C)c1C(=O)NCCNC(=O)c1c(C)cc(=O)oc1C", "values": [
      {"measurement": "EC50", "setting": "[6]", "result": "> 112 µM (not active)"},
      {"measurement": "EC50", "setting": "[7]", "result": "28.8 µM (active)"}
    ]},
    {"smiles": "COc1ccc2nc(NC(=O)Nc3ccccc3OC)sc2c1", "values": [
      {"measurement": "EC50", "setting": "cells [14]", "result": "> 350 µM (not active)"},
      {"measurement": "EC50", "setting": "cells [15]", "result": "4.4 µM (active)"}
    ]},
    {"smiles": "CCCNS(=O)(=O)c1ccc(OCC(=O)N2CCN(C)CC2)cc1", "values": [
      {"measurement": "EC50", "setting": "[5]", "result": "> 195 µM (not active)"}
    ]},
    {"smiles": "CCC(/N=c1\\cc(-c2ccc(OC)c(OC)c2)oc2ccc(C)cc12)C(=O)O", "note": "(stereo not given)", "values": [
      {"measurement": "EC50", "setting": "[5]", "result": "> 195 µM (not active)"}
    ]},
    {"smiles": "CCCc1nc2sc3c(c2c(=O)n1NC(=O)CCC(=O)OC)CCCC3", "values": [
      {"measurement": "EC50", "setting": "[6]", "result": "> 112 µM (not active)"},
      {"measurement": "EC50", "setting": "[7]", "result": "> 112 µM (not active)"}
    ]},
    {"smiles": "CN(C(=O)COC(=O)c1cc(O)nc2ccccc12)c1c(N)n(Cc2ccccc2)c(=O)[nH]c1=O", "values": [
      {"measurement": "EC50", "setting": "[5]", "result": "> 195 µM (not active)"}
    ]}
  ]
}
